# Results taken from PubChem BioAssay (NCI).
#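 Method: 48-hour compound exposure of cells in 96-well plates, five concentrations, linear interpolation of endpoints. The concentration for 50% growth inhibition is given as GI50. TGI denotes the concentration required for complete inhibition of growth.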
# Tested on: HOP-62 NSCLC
# Experiment: NCI anticancer screen, dose series, 48 h
Compound,TGI [µM],GI50 [µM]
CCOc1ccc2c(c1)[n+]([O-])c(-c1nc3ccccc3s1)c(N)[n+]2[O-],> 100,–
COc1ccc2c3c(coc13)C(CCC(=O)O)CC2 (stereo unspecified),> 100,–
c1cc[c]([Pb]([c]2ccccc2)[c]2ccccc2)cc1,79.3,36.9
COc1ccc2nc3cc(Cl)ccc3c(NCCN)c2c1,3.03,1.58
CC(=O)N1C/C(=C\c2ccc(N(C)C)cc2)C(=O)/C(=C/c2ccc(N(C)C)cc2)C1,> 100,–
CCC(=O)c1c(C(F)(F)F)n([O-])c2ccc(C)cc2[n+]1=O,> 50,11.3
COc1ccc(C2SCC(=O)N2NC(=O)Nc2c(C)nc3ccccn23)cc1 (stereo unspecified),31.1,16.4
Cc1[nH]c2ccccc2c1C1Cc2ccccc2N1C(=O)/C(Cl)=C/c1ccccc1 (stereo unspecified),> 100,–

# Tested on: CCRF-CEM leukemia
# Experiment: NCI anticancer screen, dose series, 48 h
Compound,TGI,GI50
COc1ccc(/C(Cl)=C(\C=O)c2ccc([N+](=O)[O-])cc2)cc1,23.2 µM,–
Cc1ccc(-c2cc(=O)c3cc(C)c(C)c(C(=O)O)c3o2)cc1C,> 100 µM,–
O=C(/C=C/c1c(O)ccc2ccccc12)c1ccccc1,> 100 µM,–
Cc1nc2ccccc2c(=O)n1-c1ccccc1F,> 100 µM,–
Fc1ccc(C2SCc3nc4ccccc4n32)cc1Cl (stereo unspecified),87.4 µM,–
C=C1CC[C@@H]2[C@](C)(COC(C)=O)[C@H](OC(C)=O)CC[C@@]2(C)[C@@H]1CC(Nc1ccc(S(=O)(=O)Nc2ncccn2)cc1)C1=CCOC1=O (stereo partly specified),3.41 µM,0.738 µM
CC1=N/C(=C\c2cccc([N+](=O)[O-])c2)C(=O)O1,> 100 µM,–
Cn1c2ccccc2c2c3[nH]c(=O)[nH]c(=O)c3c3c4ccccc4n(C)c3c21,> 100 µM,3.73 µM
CO[C@H]1C=C[C@@]23c4cc5c(cc4CO[C@]2(O)CN(C)[C@H]3C1)OCO5,> 100 µM,–
CC(C)N1CN(C(C(=O)N[C@@H]2C(=O)N3C2SC(C)(C)C3C(=O)O)c2ccccc2)CSC1=S (stereo partly specified),> 100 µM,–
COC(=O)c1c(C)[nH]c(/C=C2\N=C(c3ccc[nH]3)C=C2OC)c1C,> 100 µM,0.0501 µM
CC(C)c1cc2c(O)c(c1)Cc1cc(C(C)C)cc(c1O)Cc1cc(C(C)C)cc(c1O)Cc1cc(C(C)C)cc(c1O)C2,> 100 µM,–
CCCCOC(=O)NC(=O)c1cn(C2CCCCC2)c(=O)[nH]c1=O,> 100 µM,–
CC(C)CCCC(=O)CCCCCCC(=O)CCN(O)C(=O)C(N)CO (stereo unspecified),> 100 µM,–
Cc1ccc(NC(=O)NCCCOc2ccc(N3C(N)=NC(N)=NC3(C)C)cc2Cl)cc1S(=O)(=O)F,> 100 µM,9.69 µM
CC[CH2][Sn]([Cl])([Cl])[CH2]CC.Oc1ccccc1C=NCCN=Cc1ccccc1O,41.8 µM,2.16 µM
COc1cc2c(c(OC)c1)C1(CC(CC#N)C2)SCCS1 (stereo unspecified),> 100 µM,–
CCOC(=O)CCn1[nH]c(=O)c(Cl)c(Cl)c1=O,> 100 µM,–
COc1ccc(CNc2nc3cc(C(F)(F)F)ccc3nc2C)cc1OC,> 100 µM,–
C/C=C1/C(=C/c2[nH]c(/C=c3\[nH]/c(=C/C4=NC(=O)C(CC)=C4C)c(C)c3CCC(=O)O)c(CCC(=O)O)c2C)NC(=O)C1C (stereo unspecified),> 150 µg/mL,> 150 µg/mL
COc1cccc(/C=C2\C(=O)N(C(=O)c3ccc(NC(C)=O)cc3)N=C2C)c1,> 100 µM,–
N#CCc1ccc(C(C#N)/C(CCCC(=O)Nc2cccc([N+](=O)[O-])c2)=N/NC(N)=S)cc1 (stereo unspecified),> 100 µM,–
COC(C(O)c1ccc2c(c1)OCO2)P(=O)(c1ccccc1)c1ccccc1 (stereo unspecified),> 100 µM,–
CC(C)c1ccc(C(c2ccc(OCC(=O)O)cc2)c2ccc(C(C)C)cc(=O)c2O)c(O)c(=O)c1,85.2 µM,–
N#C/C(=C\c1cc2ccccc2c2ccccc12)c1ccccc1,36.2 µM,–
CCOc1ccc2c(c1)[n+]([O-])c(-c1nc3ccccc3s1)c(N)[n+]2[O-],> 100 µM,–
COc1ncc(-c2ccc3ncnc(Nc4cccc(Cl)c4)c3c2)cc1NS(=O)(=O)CCN1CCOCC1,> 100 µM,0.799 µM
c1cc[c]([Pb]([c]2ccccc2)[c]2ccccc2)cc1,> 100 µM,10.1 µM
COc1ccc2nc3cc(Cl)ccc3c(NCCN)c2c1,5.39 µM,1.42 µM
CC(=O)N1C/C(=C\c2ccc(N(C)C)cc2)C(=O)/C(=C/c2ccc(N(C)C)cc2)C1,> 100 µM,–
